Assay results published in patent US7241803B2, “Compounds for inhibition of HIV infection by blocking HIV entry” (New York Blood Center, priority 2002, dated 2007).

Key:
[1] = molecular target: gp41 six-helix bundle formed by N36 and C34-FITC (Human immunodeficiency virus type 1 group M subtype B, UniProt P04578); settings: 200 μg/ml; for gp41 six-helix bundle formation in FN-PAGE: added after N36 preincubated with C34-FITC; for gp41 six-helix bundle band in FN-PAGE: preincubated with N36 before addition of C34-FITC
Method: Fluorescence native polyacrylamide gel electrophoresis (FN-PAGE). FN-PAGE was performed as previously described (32). Briefly, 18% pre-cast Tris-Glycine gels and Novex X-Cell II Mini cell (Invitrogen, Carlsbad, Calif.) were used for native-PAGE. […] In the control, N36 was incubated with C34-FITC at 37° C. for 30 min before addition of the compounds. After incubation at 37° C. for another 30 min, the mixture was diluted in Tris-Glycine native sample buffer, then loaded to 10×1.0 mm wells. Gel electrophdrosis was carried out with 125 V constant voltage at room temperature for about 90 min in Tris-Glycine native running buffer. Immediately after electrophoresis, image of the fluorescence bands in the gel was taken by the FluorChem 8800 Imaging System (Alpha Innotech corp., San Leandro, Calif.) using a transillumination UV light source with excitation wavelength at 302 nm and a fluorescence filter with emission wavelength at 520 nm.

N36/C34 mixture = N36/C34 mixture (Human immunodeficiency virus type 1 group M subtype B, UniProt P04578); settings: 100 μg/ml
Method: Circular dichroism (CD) spectroscopy. A test compound at graded concentrations was incubated with N36 in phosphate buffer (pH 7.2) at 37° C. for 30 min before addition of C34 in the same buffer at equimolar concentration. After incubation at 37° C. for 30 min, the mixture was cooled down and CD spectra of the mixture were measured on the J-715 CD spectrometer equipped with a thermoelectric temperature controller (Jasco, Japan). The instrument was calibrated using a two point calibration method with (+)-10-camphorsulfonic acid. The wavelength dependence of molar ellipticity (θ) was monitored at 0° C. by 5 scans in 1 nm increments with a sampling time of 10 seconds as previously described (12, 51). The CD signal at 222 nm was measured as a function of temperature. Thermal melts were performed in 2° C. steps, with 2 min of equilibration at each temperature and an acquisition time of 0.5 min. The midpoint of the thermal unfolding transition (Tm) was estimated from the maximum of the first derivative of the CD signal at 222 nm (1).

HIV-1IIIB = assay: time-of-addition assay; assay type: cell-based; settings: for time of addition at which HIV replication is inhibited: summary statement
Method: Assessment of anti-HIV-1 infectivity. […] Reactions were terminated by addition of 1N H2SO4.
MT-2 cells were incubated with HIV-1IIIB at 37° C. for 0, 1, 2, 3, 4, 6, and 8 hrs, respectively, before addition of the test compounds at 10 μg/ml. AZT (2.5 μM) was used as a control. After culture for another 2 hrs, the cells were washed to remove the free virus and compounds. The supernatants were collected on day 4 post-infection for measurement of p24 production.

[2] = system: HIV-1 92US657 (clade B, R5); assay: infection of PBMCs by primary HIV-1 isolate, p24 production; assay type: cell-based; settings: Primary 92US657 (clade B, R5)
Excerpt: (§1) Culture media were changed every 3 days.

[3] = system: HIV-1 94UG103 (clade A, X4R5); assay: as above; assay type: cell-based; settings: Primary 94UG103 (clade A, X4R5)
Excerpt: as §1

[4] = system: HIV-1 93IN101 (clade C, R5); assay: as above; assay type: cell-based; settings: Primary 93IN101 (clade C, R5)
Excerpt: as §1

[5] = system: HIV-1 BCF02 (Group O, R5); assay: as above; assay type: cell-based
Excerpt: as §1

[6] = system: gp41 pocket presented on IQN17
Method: Inhibition of a biotinylated D-peptide binding to IQN17. For measuring the binding of a D-peptide, D10-p5-2k to IQN17, an ELISA was established. In brief, wells of a 96-well polystyrene plate were coated with IgG (10 μg/ml) purified from rabbit antisera directed against IQN17. The peptide IQN17 (10 μM) was incubated with a compound at graded concentrations at 37° C. for 30 min before addition of the peptide D10-p5-2K-biotin (5 μM). After incubation at 37° C. for 30 min, the mixture was added to the plate, followed by incubation at 37° C. for 30 min. After extensive washes, D10-p5-2K-biotin bound to the IQN17 was quantitated by addition of SA-HRP and TMB sequentially. The absorbance at 450 nm was read using an ELISA reader (Tecan). The percentage of inhibition by the compounds was calculated as described above.

CXCR4 = molecular target: T1, CXCR4 (Homo sapiens, UniProt P61073); assay: inhibition of anti-CXCR4 antibody 12G5 binding to CXCR4-expressing cells, cell-based ELISA; settings: 25 μM
T1 construct: expressed in transfected cells; host or cells: U373-MAGI-CXCR4CEM cells
Method: Inhibition of anti-CXCR4 antibody binding to CXCR4-expressing cells. The inhibition of the binding of anti-CXCR4 antibody to CXCR4-expressing cells was determined using a cell-based ELISA as described previously (52). Briefly, U373-MAGI-CXCR4CEM cells (1×10^5/well) which express CXCR4 molecules were cultured in a 96-well plate at 37° C. overnight. The cells were fixed with 5% formaldehyde at room temperature for 15 min and washed with PBS-T. The cells were incubated with anti-CXCR4 mAb 12G5 at 37° C. for 1 h in the presence or absence of compounds tested. Isotype IgG2a was used as a control.

[7] = system: 5.25M7 & PBMCs infected by 93TH051 (clade E, X4R5)
Method: (§2) Inhibition of fusion between PBMCs infected by primary HIV-1 strains (X4 and R5 viruses) with CEMx174 5.25 M7 cells, which express CD4 and both coreceptors, CXCR4 and CCR5, was determined by a luciferase assay. Briefly, 50 μl of compound at graded concentration in triplicate was incubated with equal volume of PHA-stimulated PBMCs (1×10^5/ml) infected by corresponding primary HIV-1 strains, respectively, for 7 days as described above. After incubation at 37° C. for 30 min, 100 μl of CEMx174 5.25 M7 cells (2×10^5) were added and incubated at 37° C. for three days. The cells were collected, washed, and lysed with the lysing reagent included in the luciferase kit (Promega, Corp., Madison, Wis.). Aliquots of cell lysates were transferred to 96-well flat-bottom luminometer plates (Costar, Corning Inc., Corning, N.Y.), followed by addition of luciferase substrate (Promega). The luciferase activity was measured in the Ultra 384 luminometer (Tecan).

[8] = system: 5.25M7 & PBMCs infected by 93IN101 (clade C, R5)
Method: as §2

[9] = 10 μg/ml added one hour or longer after virus
[10] = 10 μg/ml added to the cells with virus together

Sequence of gp41 six-helix bundle formed by N36 and C34-FITC (P04578 546-581): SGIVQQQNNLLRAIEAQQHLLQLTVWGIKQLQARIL
Sequence of N36/C34 mixture (P04578 546-581): as above
T1 sequence (P61073 whole entry): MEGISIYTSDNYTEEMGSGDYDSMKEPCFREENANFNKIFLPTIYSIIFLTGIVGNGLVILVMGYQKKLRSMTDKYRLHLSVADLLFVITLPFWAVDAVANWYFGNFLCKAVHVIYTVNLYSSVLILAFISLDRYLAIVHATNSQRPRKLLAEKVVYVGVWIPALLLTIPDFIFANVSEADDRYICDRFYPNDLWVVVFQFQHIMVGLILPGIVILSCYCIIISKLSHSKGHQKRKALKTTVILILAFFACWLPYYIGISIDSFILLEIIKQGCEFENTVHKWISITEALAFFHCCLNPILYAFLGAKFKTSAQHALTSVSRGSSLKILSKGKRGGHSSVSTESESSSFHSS

| Compound | gp41 six-helix bundle formation in FN-PAGE [1] | gp41 six-helix bundle band in FN-PAGE [1] | α-helicity of the N36/C34 mixture (N36/C34 mixture) | inhibition of HIV-1 replication, time of addition (HIV-1IIIB; [9]) | inhibition of HIV-1 replication, time of addition (HIV-1IIIB; [10]) | time of addition at which HIV replication is inhibited (HIV-1IIIB) | IC50 (μg/ml) for inhibition of p24 production [2] [µg/mL] | IC50 (μg/ml) for inhibition of p24 production [3] [µg/mL] | IC50 (μg/ml) for inhibition of p24 production [4] [µg/mL] | IC50 (μg/ml) for inhibition of p24 production [5] [µg/mL] | inhibition of biotinylated D10-p5-2K binding to IQN17 [6] | inhibition of 12G5 binding to U373-MAGI-CXCR4CEM cells (CXCR4) | IC50 (μg/ml) for inhibition of cell-cell fusion [7] [µg/mL] | IC50 (μg/ml) for inhibition of cell-cell fusion [8] [µg/mL] |
| --- | --- | --- | --- | --- | --- | --- | --- | --- | --- | --- | --- | --- | --- | --- |
| O=C(O)c1cc(-n2cccc2)ccc1Cl [NB-64] | not inhibited | the intensity of the upper bands were significantly decreased | significantly disrupted | no inhibitory activity | inhibited HIV-1 replication | only when they were added to the cells less than two hours after virus addition | 6.60 ± 1.80 | 7.94 ± 0.96 | 4.38 ± 0.19 | 1.31 ± 0.90 | significantly inhibited | no inhibitory activity | 12.72 ± 0.32 | 18.26 ± 0.01 |
| Cc1ccc(C)n1-c1ccc(C(=O)O)c(O)c1 [NB-2] | not inhibited | the intensity of the upper bands were significantly decreased | significantly disrupted | no inhibitory activity | inhibited HIV-1 replication | only when they were added to the cells less than two hours after virus addition | 10.41 ± 1.88 | 5.92 ± 0.06 | 1.05 ± 0.23 | 0.21 ± 0.12 | significantly inhibited | no inhibitory activity | 1.76 ± 0.07 | 3.27 ± 0.18 |
